Data on 2 compounds can be found in patent publication US8338414B2, “Immunosuppressive agent and anti-tumor agent comprising heterocyclic compound as active ingredient” (Zenyaku Kogyo KabushikiKaisha, priority 2005, dated 2012).

Like-named read-outs stand apart in the source and are kept apart here.

One data set relates to mouse spleen cells. Description: Proliferation inhibition assay for mouse spleen cells. The data set is classed as cell-based. The note with it: 72 h, 3 days, Alamar Blue. Summed up:
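C57BL/6N female mouse spleen cells (2×10^6 cells/mL) stimulated with Con A (3 μg/mL), LPS (100 μg/mL) or anti-mouse IgM (100 μg/mL) alongside serially diluted compounds, 3 days at 37° C, 5% CO2. Alamar Blue added for a further day; fluorescence read at ex 530/em 590 nm.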
A general note: The colour change of resazurin is a common sign of viable cells or microbes.

The test system of data set [1] is human peripheral blood mononuclear cells. Description: Proliferation inhibition assay for human peripheral blood mononuclear cells. The note with it: Homo sapiens, 72 h; PBMC, anti-CD3 and anti-CD28 antibody, 3 days, Alamar Blue. In kind it is cell-based. Here is the method:
4 mL of blood collected from healthy subjects was placed on 3 mL of MonoPoly Resolving Medium, and after centrifugation, the mononuclear cell (PBMC) fraction was collected. After washing with saline, PBMC (1×10^5 cells/mL) was suspended in RPMI 1640 medium (containing 10% fetal bovine serum, 10 mM HEPES, 1 mM pyruvic acid, and 4.5 g/L glucose). Next, after having added an anti-CD28 antibody (1 μg/mL) to the suspension, they were seeded on an anti-human CD3 T cell activation plate (BD Bioscience) at a capacity of 0.135 mL per well. Then, serial dilutions of test substances were added to respective wells, and incubated under conditions of carbon dioxide 5% at a temperature 37° C. After 3 days, Alamar Blue solution was added at 50 μL per well, and after incubation for one day, a fluorescence intensity at 590 nm using an excitation wavelength of 530 nm was determined by Cytoflour 4000 (Applied Biosystems).

Data set [2] shares this test system. Nature of the data set: Activation inhibition assay for human peripheral blood mononuclear cells (CD40L, CD69 expression). The data set is classed as cell-based. As to conditions: PBMC, anti-CD3 + anti-CD28, 6 hours, flow cytometry. On the procedure:
In accordance with the method of Assay Example 2, PBMC (2×10^6 cells/mL) was isolated from human peripheral blood, suspended in RPMI 1640 medium (containing 10% fetal bovine serum, 10 mM HEPES, 1 mM pyruvic acid, and 4.5 g/L glucose), and seeded in wells of a 96 well plate at 0.225 mL per well. The test substances were added to respective wells, and then an anti-CD3 antibody (2 μg/mL) and an anti-CD28 antibody (1 μg/mL) were added. Then, after incubation under conditions of carbon dioxide 5% at a temperature 37° C. for 6 hours, the expressions of CD40L and CD69, activation markers, were analysed by flow cytometry. As a result, when the cells were stimulated by both an anti-CD3 antibody and an anti-CD28 antibody, CD40L was expressed on 14.4% of PBMC, which was also CD4 positive. However, the proportion of the cells which expressed CD40L decreased when the cells had been treated with test substances (Compound 4: 4.9%; Compound 20: 3.7%, Compound 24: 3.6%).
(Flow cytometry measures light scatter and fluorescence of single cells or particles in a stream.)

For data set [3], the system named is Rabbit synoviocytes HIG-82. Description: Inhibition assay for proliferation of rabbit synoviocyte. The note with it: Oryctolagus cuniculus, 72 h; HIG-82, 3 days, Alamar Blue. The data set is classed as cell-based.
In data set [4] the test system is allogeneic mixed lymphocyte reaction. Nature of the data set: Allogeneic mixed lymphocyte reaction. The data set is classed as cell-based, mouse. The note with it: Mus musculus, Lymphocyte; C57BL/6N spleen stimulator cells, BALB/c lymph node responder cells, 86 hours, BrdU. Here is the method: Spleen cells prepared from C57BL/6N female mice (8-10 weeks old, purchased from Charles River Laboratories Japan Inc.) and peripheral lymph node mononuclear cells prepared from BALB/c female mice (8-10 weeks old, purchased from Charles River Laboratories Japan Inc.) were used as stimulator cells and responder cells, respectively. The respective cells were suspended in RPMI 1640 medium (containing 10% fetal bovine serum, 100 units/mL penicillin, and 0.1 mg/mL streptomycin) (with 2×10^6 cells/mL).

A further data set concerns Daudi cells. Description: Proliferation inhibitory activity on hematologic neoplasm cells, Daudi. The data set is classed as cell-based. As to conditions: Homo sapiens, Daudi, 72 h; 3 days, Alamar Blue.
The subject of the next data set is Jurkat cells. Nature of the data set: Proliferation inhibitory activity on hematologic neoplasm cells, Jurkat. The data set is classed as cell-based. As to conditions: Homo sapiens, Jurkat, 72 h; 3 days, Alamar Blue.
A further data set deals with HL 60 cells. Description: Proliferation inhibitory activity on hematologic neoplasm cells, HL60. The data set is classed as cell-based. The note with it: Homo sapiens, HL-60, 72 h; 3 days, Alamar Blue. Here is the method:
(§1) Daudi cells (5×10^5 cells/mL), Jurkat cells (5×10^5 cells/mL), THP-1 cells (5×10^5 cells/mL), U 937 cells (5×10^5 cells/mL), and HL 60 cells (5×10^5 cells/mL) suspended in RPMI 1640 medium (containing 10% fetal bovine serum, 10 mM HEPES, 1 mM pyruvic acid, 4.5 g/L glucose, 100 units/mL penicillin, and 0.1 mg/mL streptomycin) were seeded in 96 well plates at a capacity of 0.135 mL per well. Serial dilutions of test substances were added to respective wells at 15 μL/well, and incubated under conditions of carbon dioxide 5% at 37° C. for 3 days. Thereafter, Alamar Blue solution was added at 50 μL, and after incubation for one day, the fluorescence intensity at 590 nm using an excitation wavelength of 530 nm was determined by Cytoflour 4000 (Applied Biosystems).

In another data set the test system is THP-1 cells. Description: Proliferation inhibitory activity on hematologic neoplasm cells, THP-1. In kind it is cell-based. The note with it: Homo sapiens, THP-1, 72 h; 3 days, Alamar Blue.
The subject of another data set is U 937 cells. Nature of the data set: Proliferation inhibitory activity on hematologic neoplasm cells, U937. The data set is classed as cell-based. The note with it: Homo sapiens, U-937, 72 h; 3 days, Alamar Blue. On the procedure: as §1
The next data set has as its system fulminant hepatitis. Nature of the data set: Fulminant hepatitis model (galactosamine and LPS). In kind it is in vivo, mouse. The note with it: BALB/c mice, galactosamine 800 mg/kg and LPS 110 μg/kg i.p. Here is the method: BALB/c male mice (7 weeks old, purchased from Charles River Laboratories Japan Inc.) were used in the experiment. After having orally administered the test substances suspended in 5% HPC, galactosamine (800 mg/kg) and LPS (110 μg/kg) were intraperitoneally administered. Then, survival rates at 72 hours after administration were obtained.

A short description of data set [5]: Toxicologic test for single oral administration. As to conditions: Sprague-Dawley (SD), rat, in vivo; SD male rats, single oral dose.
Data set [6] has as its system Salmonella typhimurium TA98, TA100, TA1535, TA1537 and Escherichia coli WP2uvrA. Description: Ames test. In kind it is cell-based. As to conditions: preincubation method, with or without S-9, up to 5000 μg/flat plate. On the procedure:
Using 5 strains of Salmonella typhimurium TA98, TA100, TA1535, TA1537 and Escherichia coli WP2uvrA, the test substances (Compound 4, Compound 19, Compound 22 and Compound 24) were tested for their mutagenesis according to a preincubation method.
(The Ames test uses bacterial strains that need an amino acid and regain growth without it when mutated back.)

Data set [7] is described as follows: Test for measuring blood level. In kind it is in vivo. As to conditions: mouse, serum; BDF1 male mice, 200 mg/kg oral, one hour after the administration. On the procedure: A pharmacokinetic study was performed using 6 week-old BDF1 male mice. The test substances were mixed with hydroxylpropylcellulose (low-molecular weight form) [HPC(L)] in 2.5-fold of the drug weight, and dissolved in dichloromethane. The solvent was evaporated to dryness. To make the dosing formation, the residue was suspended in distilled water to prepare the drug level of 20 mg/mL. The test compounds were administered compulsorily and orally at a dose of 200 mg/kg to the mice that had been starved for 16 hours. One hour after the administration, blood was collected from the orbits of two mice to obtain serum. Internal standards solution and 1 ml of distilled water were added to 100 μL, of serum thus obtained, and then extracted with diethylether. The solvent was evaporated under vacuum, and the residue was resolved with eluent to provide samples for the HPLC measurement. HPLC was performed by using reversed-phase type column, and acetonitrile-phosphate buffer (pH 2.5) was used as the eluent. Using regression curves (Y=aX+b) obtained from the standards, the drug levels in the sample serum were calculated.

The test system of data set [8] is PC-3 prostate cancer cells. Nature of the data set: Proliferation inhibitory activity on solid tumor cells, PC-3. In kind it is cell-based. As to conditions: 72 hours. Here is the method: (§2) Used in the test were MCF-7 cells which were established from human breast cancer and were cultured routinely under the conditions of 37° C. and 5% CO2, in MEM medium supplemented with 10% fetal calf serum, 25 mM of HEPES and 0.1 mg/ml kanamycin. The MCF-7 cells in a logarithmic growth phase were treated with trypsin/EDTA to prepare single cell suspension adjusted to 4.0×10^4 cells/ml in MEM medium (supplemented with 10% fetal calf serum, 25 mM of HEPES and 0.1 mg/ml kanamycin). Test compounds were dissolved in DMSO and diluted with RPMI 1640 medium (supplemented with 10% fetal calf serum, 25 mM of HEPES and 0.1 mg/ml kanamycin) to a concentration of […] to 2.0×10^−9M.
(§3) The cell suspension was filled in a 96-wells microplate at a rate of 0.1 ml per well and was cultured for 24 hours so as to make the cells to adhere to the microplate. Then, it was added with 0.1 ml of the sample solution and cultured at 37° C. for 72 hours in 5% CO2.
(§4) 50% Growth inhibition concentrations (GI50 μM) were calculated from growth inhibitions at various sample concentrations.
(§5) In the foregoing, when the cells other than MCF-7 are used, instead of adding 10% fetal bovine serum, the following media were used, and the following single cell suspensions were prepared. • PC-3 prostate cancer cells: 10% fetal bovine serum in F12K medium, single cell suspension of 2×10^4 cells; • A549 lung cancer cells: 10% fetal bovine serum in DMEM medium, single cell suspension of 1.5×10^4 cells; • WiDr colon cancer cells: 10% fetal bovine serum in MEM medium, single cell suspension of 3×10^4 cells; • B16F10 melanoma cells: 10% fetal bovine serum in RPMI 1640 medium, single cell suspension of 1×10^4 cells;

The test system of another data set is B16F10 melanoma cells. Nature of the data set: Proliferation inhibitory activity on solid tumor cells, B16F10. In kind it is cell-based. The note with it: Mus musculus, B16-F10; 72 hours. On the procedure:
as §2, §3, §4, §5

Another data set has as its system WiDr colon cancer cells. Description: Proliferation inhibitory activity on solid tumor cells, WiDr. The note with it: Homo sapiens, 72 hours. The data set is classed as cell-based. On the procedure:
as §2, §3, §4, §5

In a further data set the test system is A549 lung cancer cells. Nature of the data set: Proliferation inhibitory activity on solid tumor cells, A549. In kind it is cell-based. The note with it: Homo sapiens, 72 hours. Here is the method:
as §2, §3, §4, §5

The next data set deals with MCF-7 cells. Nature of the data set: Proliferation inhibitory activity on solid tumor cells, MCF-7. In kind it is cell-based. The note with it: Homo sapiens, MCF7; 72 hours. On the procedure: as §2, §3, §4
Setting [9] is: LPS 100 μg/mL, read-out: Inhibition of LPS response.
Where [10] appears, read: concanavalin A 3 μg/mL, read-out: Inhibition of Con A response.

By LD50 is commonly meant the dose at which mortality reaches 50%. Regarding `COc1cccc2c1nc(C(F)F)n2-c1nc(N2CCOCC2)cc(N2C[C@@H](C)O[C@@H](C)C2)n1` [Compound 24, 2-(2-Difluoromethyl-4-methoxybenzimidazol-1-yl)-4-(cis-2,6-dimethylmorpholino)-6-morpholinopyrimidine], the IC50 with mouse spleen cells (setting [9]) was 100 to 10000 nM; in the data set on mouse spleen cells (anti-mouse IgM antibody 100 μg/mL, read-out: Inhibition of Anti-IgM antibody response), 100 to 10000 nM; with mouse spleen cells (setting [10]), 100 to 10000 nM; in data set [1], 471 nM; in [3], 441 nM; in data set [4], 286 nM. For the same compound, the IC50 with Daudi cells turned out to be 397 nM; in the data set with Jurkat cells, 1450 nM; in the data set on HL 60 cells, 823 nM; in the data set on THP-1 cells, 859 nM; with U 937 cells, 2790 nM. The “proportion of the cells which expressed CD40L” value in data set [2] (CD4 positive, 14.4% without test substance) was found to be 3.6%. Also, the “proportion of CD4-positive cells which expressed CD69” value in data set [2] (28.8% without test substance) is recorded as 17.7%. Moreover, the “proportion of CD4-negative cells which expressed CD69” value in data set [2] (50.9% without test substance) is 22.4%. The entries for the “Survival Rate after 72 Hours” value in the data set on fulminant hepatitis (50 mg/kg oral) and with fulminant hepatitis (100 mg/kg oral) were 33% and 67%, respectively. In addition, the LD50 in [5] lay within 600 to 900 mg/kg. The “mutagenesis (colony number of reverse mutation)” value in [6] is “negative”.

The term GI50 denotes the concentration at which growth is held to half of that of the control. A lower GI50 goes with more potent growth inhibition. In general, melting point refers to the temperature, or range, at which the solid turns liquid. Consider `CC(=O)N1CCN(c2nc(N3CCOCC3)nc(-n3c(C(F)F)nc4ccccc43)n2)CC1` [Compound 28, 4-(4-acetylpiperazin-1-yl)-2-(2-difluoromethylbenzimidazol-1-yl)-6-morpholino-1,3,5-triazine], for which the melting point is 223 °C. Besides, the IC50 in the data set with mouse spleen cells (setting [9]) lay within 1 to 100 nM. Further, in the data set with mouse spleen cells (setting [10]), the IC50 was at most 1 nM. This compound also displayed an IC50 in data set [3] of 1110 nM. Moreover, in the data set with Daudi cells, the IC50 was 235 nM. The same compound gave an IC50 in the data set with Jurkat cells of 1800 nM. In addition, the IC50 in the data set with THP-1 cells was determined as 496 nM. Further, the concentration at 1 h in [7] was found to be 16100 ng/mL. The 50% growth inhibitory concentration (GI50) in data set [8] worked out at 270 nM. In the data set with B16F10 melanoma cells, this compound gave a GI50 of 2660 nM. Besides, the concentration for 50% growth inhibition (GI50) in the data set on WiDr colon cancer cells amounted to 1270 nM. In the data set with A549 lung cancer cells, this compound yielded a concentration for 50% growth inhibition (GI50) of 830 nM. Further, the GI50 in the data set with MCF-7 cells was 1210 nM.
